In assay [1] the test system is isolated pancreatic islets of ^EndomKir6.2^V108E mice. Description: Static incubation assay of GSIS with diazoxide. The assay is classed as cell-based, mouse. Particulars: 100 µM diazoxide; for Amount of insulin (secreted/total), Mean: 0 µM SpTx1, mean of 6 mice. Here is the method:
(§1) Pancreatic islets were isolated as previously described ([Doliba et al., 2017]; [Li et al., 2009]). For each experiment, one to four adult mice (8–12 weeks of age) were euthanized by exposing them to an overdose of isoflurane through inhalation and a subsequent cervical dislocation. Following a perfusion through the common bile duct with a Hank’s balanced salt solution (HBSS; GIBCO, 14175) containing collagenase XI (1–2 mg/ml, Millipore-Sigma, C7657) and 1 mM CaCl2, the pancreas was dissected and digested at 37°C for 5 or 15 min. After the digestion, the collagenase in the pancreas homogenate was removed through several washes with HBSS containing 0.3% (wt/vol) bovine serum albumin, and dissociated islets were then hand-picked into a recovery media RPMI1640 (GIBCO, 21870) with the following supplements: 10% fetal bovine serum, 2 mM GlutaMAX, 1 mM sodium pyruvate, penicillin–streptomycin, and 10 mM HEPES titrated to pH 7.4 with NaOH. For the perifusion assay, the digested pancreases samples were subject to a Ficoll gradient purification, and the islets in the enriched fraction were washed with the recovery solution before handpicking islets. During this process, the samples from four mice were pooled to ensure a sufficient number of islets were used to perform assays under compared conditions with the same population in each independent round of experiment. The handpicked islets were placed in 5% CO2 incubator at 37°C to rest overnight prior to the static incubation assay or 2 days prior to the perifusion assay.
For insulin secretion in each independent static incubation assays, pancreatic islets from one mouse (8–12 weeks of age) were used as follows. […] Washed islets were equilibrated in the final wash step for 1 hr at 5% CO2 and 37°C. Using a previous study as reference ([Remedi et al., 2009]) and on the basis of the amount of insulin secretion and the sensitivity of insulin assay, we chose to use 5–10 islets in each assay. […]

The next assay has as its system wild-type mice. Description: Blood glucose monitoring of overnight-fasted mice. In kind it is in vivo, mouse. Particulars: glibenclamide 40 mg/kg body weight, single intraperitoneal application; end of 2-hr observation period. As to the method: We evaluated the blood glucose levels of tested mice (8–12 weeks of age) using a digital glucometer (Clarity Diagnostics, BG1000). Induced diabetic mice were tested daily starting from the day after the final administration of tamoxifen until their blood glucose levels reached above 600 mg/dl. Following overnight (16 hr) fasting, blood glucose monitoring and plasma collection were then performed using specified mouse lines at designated time points over a 2-hr observation period in the next morning. […] At each given time point, the glucose level of a blood drop obtained from the cut tail tip was measured twice using a glucometer. For any case where the level was above 600 mg/dl, the blood sample was diluted by an equal volume of the phosphate-buffer solution titrated to pH 7.3 before the glucose level was remeasured for two times. Additionally, four to five drops (~12 μl) of tail vein blood were collected at individual specified time points into a tube containing K2EDTA (1.5 mg/ml blood) and centrifuged at 2000 × g for 5 min at 4°C. 5 μl of the resulting plasma was frozen in liquid nitrogen, stored at −20°C, and assayed using a colorimetric insulin-detecting ELISA kit (CrystalChem, 90080) within a week. Mice were grouped according to genotypes. Using a previous study as reference ([Remedi et al., 2009]), we determined the number of mice for individual groups. […]

The subject of assay [2] is β cells in isolated pancreatic islets from ^EndomKir6.2^V108E mice. Description: Membrane potential (Vm), perforated whole-cell patch clamp. In kind it is cell-based, mouse. Particulars: glibenclamide; nominal glucose-free condition. As to the method:
(§2) Electrophysiological membrane potential (Vm) measurements from individual cells in isolated but intact islets cultured on glass coverslips were performed using the perforated whole-cell patch-clamp method as described ([Yang et al., 2021]). Wax-coated electrodes (G85150T, Warner) were back filled with the intracellular solution containing (in mM): 76 K2SO4, 10 KCl, 10 NaCl, 6 MgCl2, 30 mannitol, 30 HEPES, where pH was titrated to 7.2 at 35°C with N-methyl-d-glucamine (NMG). The tip of the pipette was filled with this solution and the remainder was back filled with the same solution plus β-escin (6 or 8 µM). The free Mg^2+ concentration of this solution, taking the divalent cation-chelating action of SO4^2− into consideration, is estimated to be about 2 mM. The extracellular solution contained (in mM): 135 NaCl, 4 KCl, 2 CaCl2, 2 MgCl2, 10 HEPES, where pH was titrated to 7.4 at 35°C with NMG. Glucose was added to this solution as required and the osmolarity was adjusted to ~300 mOsm with mannitol. All salts were from Millipore-Sigma. Using the solutions described above, the initial input resistance of the electrode was typically 4–8 MΩ. The electrophysiological recordings were performed under a continuous perfusion condition, 0.3–0.4 ml/min (Instech), at ~35°C (TC-124A and TC-344B Warner). Islets were equilibrated in the recording chamber for 10–15 min before measurements were made. Adequate whole-cell access was achieved typically within 5–10 min.
(§3) The output of the patch-clamp amplifier (Axopatch 200B, Molecular Devices) was digitized at 2 kHz and stored for later analysis using Igor Pro (v8 or v9, Wavemetrics). The liquid junction potential has been subtracted from the results. To estimate the average Vm values under different conditions, the Vm traces were digitally Gaussian filtered at 0.1 Hz and the filtered data points in the last 50 s of a segment of interest were averaged. The filtered traces are superimposed on the illustrative original traces in the figures where appropriate. The variations in data values reflected both biological variability and technical errors (Figures 2D–F–6D–F). No data, which were successfully recorded over sufficient durations that allowed for adequate examination the membrane potential under the various specified conditions, were excluded.

In assay [3] the test system is β cells in isolated pancreatic islets from wild-type mice. Described as above. The assay is classed as cell-based, mouse. As to the method:
as §2, §3

Assay [4] concerns isolated pancreatic islets of ^EndomKir6.2^V108E mice. The assay is classed as cell-based, mouse. Here is the method: as §1
For each perifusion experiment ([Doliba et al., 2017]), pancreatic islets from four mice (8–12 weeks of age) were used in the following manner. […] At the end of each experiment, the islets were recovered and placed in acidified ethanol to extract total insulin content as described above. Insulin in the samples was assayed using an insulin-specific radioimmunoassay kit (RI-13K, Millipore). For each condition, the study was performed three to six times. […] No experiments were excluded.

Assay [5] concerns ^Rosa26mKir6.2^NDM-V108E mice. Description: Blood glucose monitoring of overnight-fasted diabetic mice. The assay is classed as in vivo, mouse. The settings on record: glibenclamide 40 mg/kg, single bolus. The source says:
(§4) In ^Rosa26mKir6.2^NDM and ^Rosa26mKir6.2^NDM-V108E mice, the expression of mutant Kir6.2 activity occurred in the pancreas upon the excision of the Neo/WSS cassette by the tamoxifen-dependent Cre recombinase ([Remedi et al., 2009]). Exposure to tamoxifen permitted the translocation of Cre recombinase from the cytoplasm to the nucleus in order to perform the excision between loxP sites within the targeted Rosa26 locus. To induce the expression of mutant Kir6.2 activity and consequently the diabetic phenotype in these mutant mice (8–12 weeks of age), corn oil containing tamoxifen (75 mg/kg body weight; prepared as described below) was injected intraperitoneally for five consecutive days. Injection sites were sealed with a tissue adhesive (3M Vetbond) to prevent leakage of the injected liquid.
(§5) We evaluated the blood glucose levels of tested mice (8–12 weeks of age) using a digital glucometer (Clarity Diagnostics, BG1000). Induced diabetic mice were tested daily starting from the day after the final administration of tamoxifen until their blood glucose levels reached above 600 mg/dl. […] At each given time point, the glucose level of a blood drop obtained from the cut tail tip was measured twice using a glucometer. […]

Assay [6] deals with ^Rosa26mKir6.2^NDM-V108E mice. Description: Plasma insulin assay (ELISA). In kind it is in vivo, mouse. The settings on record: glibenclamide 40 mg/kg, single bolus.
Source text: as §4, §5
In general terms: ELISA stands for enzyme-linked immunosorbent assay.

“Also recorded” adds a separate entry of the source. Like-named read-outs stand apart in the source and are kept apart here.

As for `CC1=NS(=O)(=O)c2cc(Cl)ccc2N1` [diazoxide], in assay [1] (16.7 mM glucose), the “effect on insulin secretion” value is recorded as “lowered the insulin secretion in 16.7 mM glucose to the baseline level” and the “Amount of insulin (secreted/total), Mean” value amounted to 0.2327. Moreover, the “Amount of insulin (secreted/total), Mean” value in assay [1] (3 mM glucose) stood at 0.2568.

For `COc1ccc(Cl)cc1C(=O)NCCc1ccc(S(=O)(=O)NC(=O)NC2CCCCC2)cc1` [glibenclamide], the “effect on blood glucose level” value in the assay on wild-type mice is given as “lowered the blood glucose level of wild-type mice by half”. Moreover, the “effect on Vm” value in assay [2] was “elicited action potentials”; in assay [3] (glibenclamide 0.4 µM, glucose 0 mM), “dramatically depolarized Vm and triggered a train of action potentials”. In addition, the Vm is -0.05335 V in assay [3] (0.2 uM Glibenclamide in 5 mM Glucose, islet 1); -0.03306 V in assay [3] (0.2 uM Glibenclamide in 5 mM Glucose, islet 2); -0.0403 V in assay [3] (0.2 uM Glibenclamide in 5 mM Glucose, islet 3); -0.05043 V in assay [3] (0.4 uM Glibenclamide in 0 mM Glucose, islet 1); -0.02061 V in assay [3] (0.4 uM Glibenclamide in 0 mM Glucose, islet 2); -0.04501 V in assay [3] (0.4 uM Glibenclamide in 0 mM Glucose, islet 3). In addition, the Vm is given as -0.03684 V in assay [3] (0.4 uM Glibenclamide in 0 mM Glucose, islet 4); -0.05294 V in assay [3] (0.4 uM Glibenclamide in 0 mM Glucose, islet 5); -0.05777 V in assay [3] (0.4 uM Glibenclamide in 0 mM Glucose, islet 6); -0.04669 V in assay [3] (0.4 uM Glibenclamide in 8 mM Glucose, islet 1); -0.04799 V in assay [3] (0.4 uM Glibenclamide in 8 mM Glucose, islet 2); -0.04272 V in assay [3] (0.4 uM Glibenclamide in 8 mM Glucose, islet 3). In addition, the Vm was -0.05311 V in assay [3] (0.4 uM Glibenclamide in 8 mM Glucose, islet 5) and -0.0321 V in assay [3] (0.4 uM Glibenclamide in 8 mM Glucose, islet 6). In addition, in assay [4] (1 μM glibenclamide), the “insulin secretion after removal of inhibitor and return to 3 mM glucose” value is reported as “the elevated insulin secretion largely persisted”. In addition, the “effect on insulin secretion” value in assay [4] (1 μM glibenclamide with glucose raised from 3 to 10 mM) is listed as “yielded insulin secretion much greater than that from elevated glucose alone”; in assay [4] (1 μM glibenclamide, 16.7 mM glucose), “caused much greater secretion of insulin than it did in the absence of glibenclamide”. In assay [4] (1 μM glibenclamide, 3 mM glucose, added 10 min before raising glucose), the “insulin secretion in nonstimulating glucose (primary secretagogue)” value was “triggered sizable secretion of insulin; also recorded: stimulated sizable secretion of insulin”. Also, the “effect on elevated blood glucose level” value in assay [5] is given as “neither markedly lowered the elevated blood glucose level”. Moreover, in assay [6], the “effect on plasma insulin” value is recorded as “nor caused a rise of insulin in the plasma”.
